Values after ≈ are worked out from the molar mass of the structure shown.
Experiments:
APAE001 (ATCC27853) = experiment: MIC broth microdilution, APAE001; type: cell-based, P. aeruginosa; settings: Pseudomonas aeruginosa, ATCC27853, read-out: MIC APAE001, APAE001 is ATCC27853
Outline: (§1)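 Incubation: 35° C., ambient air, 18-24 h. Medium: cation-adjusted Mueller-Hinton broth with 2-fold serial dilutions of drug. Inoculum: 3×10^5–7×10^5 CFU/mL final, per CLSI microdilution method.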

[1] = system: APAE006 in the presence of 8 micrograms per milliliter of polymyxin B nonapeptide; type: cell-based, P. aeruginosa; settings: in the presence of 8 micrograms per milliliter of polymyxin B nonapeptide
Outline: (§2)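 CLSI-guided microdilution: bacteria passaged overnight at 35° C. on Mueller-Hinton agar, tested in cation-adjusted broth at a final 3×10^5–7×10^5 CFU/mL across 2-fold drug dilutions, read after 18-24 h at 35° C.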

[2] = system: APAE006 (strain of P. aeruginosa in which all efflux pumps are inactivated); experiment: microbe, parasite or virus in culture; type: cell-based; settings: Pseudomonas aeruginosa, read-out: MIC APAE006, P. aeruginosa, all efflux pumps inactivated
Outline: as §2

AECO001 HSA AGP = experiment: MIC broth microdilution, AECO001 HSA AGP; type: cell-based, E. coli; settings: Escherichia coli
Outline: as §1

[3] = system: AABA1060 (clinical isolate of Acinetobacter baumannii); experiment: MIC broth microdilution, AABA1060; type: cell-based; settings: Acinetobacter baumannii, read-out: MIC AABA1060
Outline: as §1

[4] = system: AECO063 (ATCC25922 bearing an acrAB mutation); experiment: microbe, parasite or virus in culture; type: cell-based, E. coli; settings: Escherichia coli, ATCC25922, read-out: MIC AECO063
Outline: as §1

AECO001 (ATCC25922) = experiment: MIC broth microdilution, AECO001; type: cell-based, E. coli; settings: Escherichia coli, ATCC25922, read-out: MIC AECO001
Outline: as §1

[5] = system: ASAU001 (laboratory strain of S. aureus, ATCC29213); experiment: MIC broth microdilution, ASAU001; type: cell-based; settings: Staphylococcus aureus, ATCC29213, read-out: MIC ASAU001
Outline: as §1

Row | Compound | MIC (APAE001 (ATCC27853)) | MIC APAE006 + PMBN [1] | MIC [2] | MIC (AECO001 HSA AGP) | MIC [3] | MIC [4] | MIC (AECO001 (ATCC25922)) | MIC [5]
1 | CC(C)[C@H](NC(=O)c1ccc(C#C/C=C/c2ccc(CN3CCOCC3)cc2)cc1)C(=O)NO [Example 96-3] | 2 to 16 mg/L (≈ 4.33 to 34.7 µM) | A (MIC's of 2.0 μg/mL or less = A) | < 2 mg/L | 2 to 16 mg/L (≈ 4.33 to 34.7 µM) | 2 to 16 mg/L (≈ 4.33 to 34.7 µM) | < 2 mg/L | < 2 mg/L | 16 to 64 mg/L (≈ 34.7 to 139 µM)
2 | C[C@H](NCC(=O)NC[C@H](NC(=O)c1ccc(C#C/C=C/c2ccccc2)cc1)C(=O)NO)c1ccccc1 [Example 105-2, N—{(S)-1-Hydroxycarbamoyl-2-[2-((S)-1-phenyl-ethylamino)-acetylamino]-ethyl}-4-((E)-4-phenyl-but-3-en-1-ynyl)-benzamide] | 2 to 16 mg/L (≈ 3.92 to 31.3 µM) | A (MIC's of 2.0 μg/mL or less = A) | < 2 mg/L | < 2 mg/L | 16 to 64 mg/L (≈ 31.3 to 125 µM) | < 2 mg/L | < 2 mg/L | 16 to 64 mg/L (≈ 31.3 to 125 µM)
3 | O=C(CNC1CC1)NC[C@H](NC(=O)c1ccc(C#CC#Cc2ccccc2)cc1)C(=O)NO [Example 85-1, N—[(S)-2-(2-Cyclopropylamino-acetylamino)-1-hydroxycarbamoyl-ethyl]-4-(4-phenyl-buta-1,3-diynyl)-benzamide] | 2 to 16 mg/L (≈ 4.5 to 36 µM) | A (MIC's of 2.0 μg/mL or less = A) | < 2 mg/L | 2 to 16 mg/L (≈ 4.5 to 36 µM) | 16 to 64 mg/L (≈ 36 to 144 µM) | < 2 mg/L | < 2 mg/L | 16 to 64 mg/L (≈ 36 to 144 µM)
4 | C[C@@H](N)[C@H](NC(=O)c1ccc(C#Cc2ccc(CNCC3CCCO3)cc2)cc1)C(=O)NO (some centres unmarked) [Example 118-5] | < 2 mg/L | A (MIC's of 2.0 μg/mL or less = A) | < 2 mg/L | 2 to 16 mg/L (≈ 4.44 to 35.5 µM) | 16 to 64 mg/L (≈ 35.5 to 142 µM) | < 2 mg/L | 2 to 16 mg/L (≈ 4.44 to 35.5 µM) | > 64 mg/L
5 | C[C@@H](N)[C@H](NC(=O)c1ccc(C#Cc2ccc(CNS(C)(=O)=O)cc2)cc1)C(=O)NO [Example 131-2] | < 2 mg/L | A (MIC's of 2.0 μg/mL or less = A) | < 2 mg/L | 16 to 64 mg/L (≈ 36 to 144 µM) | 16 to 64 mg/L (≈ 36 to 144 µM) | < 2 mg/L | 2 to 16 mg/L (≈ 4.5 to 36 µM) | > 64 mg/L
6 | C[C@@H](O)[C@H](NC(=O)c1ccc(C#Cc2ccc(O)cc2)cc1)C(=O)NO [Example 133-12] | < 2 mg/L | A (MIC's of 2.0 μg/mL or less = A) | < 2 mg/L | 2 to 16 mg/L (≈ 5.64 to 45.2 µM) | 16 to 64 mg/L (≈ 45.2 to 181 µM) | < 2 mg/L | < 2 mg/L | 16 to 64 mg/L (≈ 45.2 to 181 µM)
7 | C[C@@H](N)[C@H](NC(=O)c1ccc(C#CC#Cc2ccc(CO)cc2)cc1)C(=O)NO [Example 82-3] | < 2 mg/L | A (MIC's of 2.0 μg/mL or less = A) | < 2 mg/L | 16 to 64 mg/L (≈ 40.9 to 164 µM) | 2 to 16 mg/L (≈ 5.11 to 40.9 µM) | < 2 mg/L | < 2 mg/L | 16 to 64 mg/L (≈ 40.9 to 164 µM)
8 | NC[C@H](NC(=O)c1ccc(/C=C/C#Cc2ccc(CNC3CC3)cc2)cc1)C(=O)NO [Example 113-1] | 2 to 16 mg/L (≈ 4.78 to 38.2 µM) | A (MIC's of 2.0 μg/mL or less = A) | < 2 mg/L | 2 to 16 mg/L (≈ 4.78 to 38.2 µM) | 16 to 64 mg/L (≈ 38.2 to 153 µM) | < 2 mg/L | < 2 mg/L | > 64 mg/L
9 | C[C@@H](O)[C@H](NC(=O)c1ccc(C#Cc2cccc(OC(F)(F)F)c2)cc1)C(=O)NO [Example 133-11] | 16 to 64 mg/L (≈ 37.9 to 152 µM) | A (MIC's of 2.0 μg/mL or less = A) | 2 to 16 mg/L (≈ 4.74 to 37.9 µM) | 16 to 64 mg/L (≈ 37.9 to 152 µM) | 16 to 64 mg/L (≈ 37.9 to 152 µM) | < 2 mg/L | < 2 mg/L | 16 to 64 mg/L (≈ 37.9 to 152 µM)
10 | CC(C)(O)[C@H](NC(=O)c1ccc(C#CC#Cc2ccc(CNC3CC3)cc2)cc1)C(=O)NO [Example 87-3] | < 2 mg/L | A (MIC's of 2.0 μg/mL or less = A) | < 2 mg/L | < 2 mg/L | < 2 mg/L | < 2 mg/L | < 2 mg/L | 16 to 64 mg/L (≈ 35.9 to 144 µM)
